Source: US20220347175A1, “PYRIDAZINONE DERIVATIVE” (Sumitomo Dainippon Pharma Co., Ltd., priority 2018, published 2022)

Key:
[1] = molecular target: T1, human Nav1.5 (Homo sapiens, UniProt Q14524); experiment: Amplification of Nav1.5-derived voltage-dependent sodium current (Nav1.5 current), cell line stably expressing human Nav1.5, automated patch clamp; type: cell-based; conditions: for activation at 10 µM / Nav1.5 current amplification rate (%): 10 μmol/L compound, change of the area under the curve of Nav1.5 current (Test Result 1)
T1 construct: expressed in transfected cells; host or cells: CHO-K1 (T-REx System, ThermoFisher Scientific)
T1 sequence (Q14524 1-2015 isoform Q14524-2): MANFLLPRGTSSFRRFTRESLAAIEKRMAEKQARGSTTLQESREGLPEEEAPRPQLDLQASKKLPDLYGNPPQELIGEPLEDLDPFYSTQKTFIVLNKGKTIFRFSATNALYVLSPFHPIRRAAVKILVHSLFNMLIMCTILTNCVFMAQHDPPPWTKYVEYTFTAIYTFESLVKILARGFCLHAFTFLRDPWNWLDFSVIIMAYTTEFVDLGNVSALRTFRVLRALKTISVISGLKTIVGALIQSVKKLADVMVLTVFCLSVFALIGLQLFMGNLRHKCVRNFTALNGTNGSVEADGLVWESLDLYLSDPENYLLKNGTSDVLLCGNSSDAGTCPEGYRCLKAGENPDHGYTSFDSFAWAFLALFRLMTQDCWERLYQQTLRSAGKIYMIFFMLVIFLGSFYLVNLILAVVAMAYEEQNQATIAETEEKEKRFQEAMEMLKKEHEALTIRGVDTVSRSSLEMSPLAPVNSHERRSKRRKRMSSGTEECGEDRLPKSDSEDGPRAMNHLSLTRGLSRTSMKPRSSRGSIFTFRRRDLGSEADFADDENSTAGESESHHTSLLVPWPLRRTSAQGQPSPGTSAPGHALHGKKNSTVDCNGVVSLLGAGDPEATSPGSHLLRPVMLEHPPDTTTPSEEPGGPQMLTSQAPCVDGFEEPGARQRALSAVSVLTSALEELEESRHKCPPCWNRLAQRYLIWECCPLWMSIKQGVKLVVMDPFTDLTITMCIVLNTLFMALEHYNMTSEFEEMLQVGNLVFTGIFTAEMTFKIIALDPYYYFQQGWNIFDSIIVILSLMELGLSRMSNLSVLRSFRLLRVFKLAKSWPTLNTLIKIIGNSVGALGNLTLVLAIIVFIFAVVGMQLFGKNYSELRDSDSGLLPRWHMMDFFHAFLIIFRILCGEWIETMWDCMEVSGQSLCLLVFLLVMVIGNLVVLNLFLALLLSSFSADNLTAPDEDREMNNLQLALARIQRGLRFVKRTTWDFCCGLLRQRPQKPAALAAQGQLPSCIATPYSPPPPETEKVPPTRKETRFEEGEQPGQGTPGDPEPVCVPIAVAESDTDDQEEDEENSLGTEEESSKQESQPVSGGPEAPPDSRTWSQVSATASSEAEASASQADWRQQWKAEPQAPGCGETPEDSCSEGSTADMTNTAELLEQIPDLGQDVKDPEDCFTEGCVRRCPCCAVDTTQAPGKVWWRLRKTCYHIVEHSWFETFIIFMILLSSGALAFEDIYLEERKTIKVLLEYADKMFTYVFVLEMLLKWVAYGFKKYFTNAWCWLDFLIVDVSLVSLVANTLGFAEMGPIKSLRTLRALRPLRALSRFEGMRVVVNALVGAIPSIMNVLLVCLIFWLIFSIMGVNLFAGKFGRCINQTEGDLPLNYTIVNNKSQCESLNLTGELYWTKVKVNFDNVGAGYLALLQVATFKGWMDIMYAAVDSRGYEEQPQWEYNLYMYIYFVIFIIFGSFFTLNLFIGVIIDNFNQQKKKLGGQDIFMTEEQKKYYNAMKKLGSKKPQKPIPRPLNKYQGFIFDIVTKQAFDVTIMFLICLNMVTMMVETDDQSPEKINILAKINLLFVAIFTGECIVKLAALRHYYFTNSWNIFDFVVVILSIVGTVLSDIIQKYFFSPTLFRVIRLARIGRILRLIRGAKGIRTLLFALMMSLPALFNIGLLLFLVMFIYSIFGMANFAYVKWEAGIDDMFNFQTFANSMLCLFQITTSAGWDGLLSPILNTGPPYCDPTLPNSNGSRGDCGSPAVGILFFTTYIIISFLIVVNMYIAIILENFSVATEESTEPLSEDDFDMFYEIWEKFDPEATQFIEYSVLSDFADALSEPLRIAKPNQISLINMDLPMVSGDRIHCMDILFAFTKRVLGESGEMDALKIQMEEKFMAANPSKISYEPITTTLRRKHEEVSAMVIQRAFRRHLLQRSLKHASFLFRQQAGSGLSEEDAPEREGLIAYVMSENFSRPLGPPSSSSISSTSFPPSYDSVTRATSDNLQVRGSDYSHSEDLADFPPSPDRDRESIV

[2] = molecular target: T2, human Nav1.1 (Homo sapiens, UniProt P35498); experiment: Amplification of Nav1.1-derived voltage-dependent sodium current (Nav1.1 current), cell line stably expressing human Nav1.1, automated patch clamp; type: cell-based; conditions: for activation at 10 µM / Nav1.1 current amplification rate (%): 10 μmol/L compound, change of the area under the curve of Nav1.1 current (Test Result 1)
T2 construct: host or cells: HEK293
How it was run: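 Amplification rate (%) is 100 × post-compound/pre-compound Nav1.1 peak current or AUC, minus 100. Ramp-evoked sodium currents were recorded by automated patch clamp in a human Nav1.1 HEK293 stable line, restricted to cells exceeding 500 pA, with compounds added in extracellular solution containing 1% DMSO.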

[3] = read-out: Nav1.5 current amplification rate (%)
[4] = read-out: Nav1.1 current amplification rate (%)

| activation at 10 µM [2, 4] [%] | SMILES | activation at 10 µM [1, 3] [%] | further results |
| --- | --- | --- | --- |
| 227 | O=C(Cn1nc(N2CCC3(CCC3)C2)ccc1=O)Nc1ccc2ocnc2c1 [Example 131] | 7 |  |
| 108 | O=C(Cn1nc(N2CCCC3(CCCC3)C2)ccc1=O)Nc1ccc2ocnc2c1 [Example 132] | -2 |  |
| 285 | O=C(Cn1nc(N2CCCC3(CCC3)C2)ccc1=O)Nc1ccc2scnc2c1 [Example 133] | 12 |  |
| 44 | O=C(Cn1nc(N2CCCC3(CCC3)C2)ccc1=O)Nc1cccc(-c2nccs2)c1 [Example 134] | -5 |  |
| 195 | O=C(Cn1nc(N2CCC3(CCCC3)CC2)ccc1=O)Nc1ccc2ocnc2c1 [Example 135] | 2 |  |
|  | Cc1ccc(-c2nn(CC(=O)Nc3ccn4ccnc4c3)c(=O)c(C)c2C)cc1 [Example 156] |  | Nav1.5 current amplification rate (%) [1]: 4%; Nav1.1 current amplification rate (%) [2]: 33% |
|  | Cc1ccc(-c2ccc(=O)n(CC(=O)N3CCc4cc(N5CCOCC5)ccc43)n2)cc1 [Example 158] |  | Nav1.5 current amplification rate (%) [1]: 30%; Nav1.1 current amplification rate (%) [2]: 122% |
|  | Cc1ccc(-c2ccc(=O)n(CC(=O)N3CCc4cnccc43)n2)cc1 [Example 159] |  | Nav1.5 current amplification rate (%) [1]: 26%; Nav1.1 current amplification rate (%) [2]: 32% |
| 324 | O=C(Cn1nc(N2CCC3(CCC3)C2)ccc1=O)Nc1ccc2scnc2c1 [Example 160] | 33 |  |
| 21 | O=C(Cn1nc(N2CCC3C(C2)C3(F)F)ccc1=O)Nc1ccc2ocnc2c1 (stereo not shown) [Example 161] | -1 |  |
| 6 | O=C(Cn1nc(N2CC3C(C2)C3(F)F)ccc1=O)Nc1ccc2ocnc2c1 (stereo not shown) [Example 162] | 0 |  |
| 118 | CC1CCN(c2ccc(=O)n(CC(=O)Nc3ccc4ccoc4c3)n2)CC1 [Example 163] | 1 |  |
| 187 | CC1CCN(c2ccc(=O)n(CC(=O)N3CCc4cc(N5CCOCC5)ccc43)n2)CC1 [Example 164] | 34 |  |
| 146 | Cc1c(N2CCC3(CCCC3)C2)nn(CC(=O)Nc2ccc3ocnc3c2)c(=O)c1C [Example 165] | 11 |  |
| 150 | Cc1c(N2CCC3(CCCC3)C2)nn(CC(=O)Nc2ccn3ccnc3c2)c(=O)c1C [Example 166] | 45 |  |
| 129 | O=C(Cn1nc(N2CCC3(CCCC3)C2)ccc1=O)Nc1ccn2ccnc2c1 [Example 167] | 21 |  |
| 205 | O=C(Cn1nc(N2CCC3(CCC3)CC2)ccc1=O)Nc1ccn2ccnc2c1 [Example 168] | 23 |  |
| 155 | O=C(Cn1nc(N2CCC3(CCCC3)C2)ccc1=O)Nc1ccn2nccc2c1 [Example 169] | 43 |  |
| 107 | CC1CCN(c2ccc(=O)n(CC(=O)Nc3ccc4c(c3)OCC4)n2)CC1 [Example 170] | 1 |  |
|  | CC1CCN(c2ccc(=O)n(CC(=O)Nc3cccc(-c4cnc[nH]4)c3)n2)CC1 [Example 171] |  | activation at 3 µM ([1]; compound 3 μmol/L, CHO-K1 stably expressing human Nav1.5, read-out: Nav1.5 current amplification rate (%)): 0%; activation at 3 µM ([2]; compound 3 μmol/L, HEK293 stably expressing human Nav1.1, read-out: Nav1.1 current amplification rate (%)): 2% |
| 117 | O=C(Cn1nc(N2CCC3(CCC3)C2)ccc1=O)Nc1ccc2c(c1)OCC2 [Example 172] | 4 |  |
| 112 | CC1CCN(c2ccc(=O)n(CC(=O)Nc3ccn4c(Br)cnc4c3)n2)CC1 [Example 173] | 47 |  |
| 75 | Cc1cn2ccc(NC(=O)Cn3nc(N4CCC(C)CC4)ccc3=O)cc2n1 [Example 174] | 4 |  |
| 44 | Cc1cc2cc(NC(=O)Cn3nc(N4CCC(C)CC4)ccc3=O)ccc2o1 [Example 175] | 1 |  |
| 66 | O=C(Cn1nc(N2CCC3(CCC3)CC2)ccc1=O)Nc1ccn2cnnc2c1 [Example 176] | 2 |  |
| 169 | O=C(Cn1nc(N2CCC3(CCC3)C2)ccc1=O)Nc1ccn2ccnc2c1 [Example 177] | 16 |  |
